Data: US20240336595A1, “BIFUNCTIONAL COMPOUNDS FOR DEGRADING BTK WITH DIMINISHED IMID ACTIVITY” (NURIX THERAPEUTICS, INC., priority 2021, published 2024)
“Also recorded” adds a separate entry of the source.

How the values were obtained:
[1] = system: Experimental autoimmune encephalomyelitis (EAE); assay: Experimental autoimmune encephalomyelitis (EAE) model; assay type: in vivo, C57BL/6 mice
Experimental: EAE was induced in C57BL/6 mice by immunization with an emulsion of MOG1-125 in complete Freund's adjuvant (CFA), followed by administration of pertussis toxin in PBS, first on the day of immunization (Day 0) and then again the following day (Day 1).
Dosing of all mice started on Day −1 and continued through Day 22. Fingolimod (FTY720, Gilenya) is the a commonly used positive control in this model.
Statistical significance was determined between vehicle control and treated groups based on the end clinical scores using Wilcoxon's non-parametric test.
Statistical analysis: Demyelination (anti-MBP) with Wilcoxon's non-parametric test; inflammatory foci or apoptosis with two-tailed Student's t-test.

[2] = system: collagen-induced arthritis (CIA) model; assay: Collagen-induced arthritis (CIA) model; assay type: in vivo; settings: mouse CIA, daily oral 30 mg/kg
Source text: Immunization with Collagen Type II (CII) in an adjuvant induces polyarthritis in rodents. This model known as the collagen-induced arthritis (CIA) model, is widely used for studying arthritis and resemble many aspect of the human disease. High level of anti-collagen II correlates with disease severity. In FIG. 1 CIA was induced by immunization with type II collagen in complete Freund's adjuvant on Day 0. A second boost was given on Day 21. Treatment with vehicle or therapeutic agents was initiated on Day 18 and continued to day 35. At the end of the study on Day 36, serum was collected. […] Significance of clinical arthritis score (A) was determined from the area under the curve (AUC) of mean paw scores calculated for individual mice. (C) Serum levels of anti-type II collagen IgG. Statistical significance was determined between vehicle control and treated groups with one-way Kruskal-Wallis ANOVA and Dunn's multiple comparisons test.

[3] = Exposure in cerebrospinal fluid after a single oral dose; assay type: in vivo, Male C57BL/6 mice; settings: mouse, single oral dose 300 mg/kg
Experimental: Male C57BL/6 mice were administered Compound 1 orally at 300 mg/kg and 4, 8, or 24 hours after dosing CSF and plasma was collected from three mice per time point. The concentration of Compound 1 in CSF and plasma was determined by LC/MS/MS; free plasma concentration was calculated by multiplying total plasma concentration by the previously determined percentage of Compound 1 unbound to plasma protein.

plasma cells = assay: Plasma cell counts in spleen and bone marrow, established arthritis model; assay type: in vivo, male DBA/1 mice
Source text: (B) Spleens harvested at the end of the study were dissociated, and red blood cells were lysed with ammonium-chloride-potassium (ACK) lysis buffer. 1.5 million cells per spleen were stained for flow cytometry, and live single lymphocytes were gated for plasma cells (CD138+ IgD−). Plasma cells numbers were normalized to total B cells in spleen (CD19+B220+).
(C) Bone marrow was isolated from femurs harvested at the end of the study, and samples were processed and analyzed as in (B).
In (B) and (C), ordinary one-way ANOVAs with Dunnett's multiple comparisons tests were performed.

plasma cell generation = assay: Plasma cell generation upon NP-KLH immunization; assay type: in vivo, Mice
Experimental: Mice were immunized by intraperitoneal injection of 200 μL of immunogen containing 100 μg NP-32-KLH (Biosearch Technologies, Cat. N-5060-25,Lot. 156285-01) and 1% Alum (Alhydrogel, 2%, Invivogen Cat. Vac-alu-250, Batch 0001715532, Exp. July 2022), prepared in phosphate buffered saline. Group 1 mice were not immunized and used as control. Mice in Group 2 to 5 were dosed orally once a day from Day 1 to Day 7 with compounds or vehicle for six additional days and then sacrificed the following day. Splenocytes and bone marrow were harvested 24 hours following the final dosing of compound on Day 7. Spleens harvested at the end of the study were dissociated, and red blood cells were lysed with ammonium-chloride-potassium (ACK) lysis buffer. 1 million cells per tissue were stained for each flow cytometry panel.
Splenocytes were stained for lineage markers with fluorophore-conjugated antibodies and for NP hapten reactivity with NP-conjugated to phycoerythrin (NP-PE). Live single lymphocytes were gated for B cells (CD19+B220+) and then gated for IgD+ and IgD− B cells. IgD− B cells were then gated for germinal center B cells (Fas+GL-7+), and germinal center B cells were gated for NP+ cells on the basis of staining with NP-PE.
An ordinary one-way ANOVA with Tukey's multiple comparisons test was performed, and all groups were compared to each other. * p<0.05, ** p<0.01,**** p<0.001. All comparisons without an asterisk were not significant.

MRL/lpr model = assay: MRL/lpr lupus model; assay type: in vivo, MRL/lpr mice
Experimental: Dexamethasone was used as positive control.
Statistical significance was determined between vehicle control and treated groups by ANOVA with Dunnett's post-hoc analysis.
Glomeruli size is a quantitative measure that correlates well with the histopathological grade and severity of nephritis in this model. Statistical significance was determined between vehicle control and treated groups by ANOVA with Dunnett's post-hoc analysis (glomerulus diameter) or with a Kruskal-Wallis test with Dunn's post-hoc analysis (summed scores). * p<0.05, ** p<0.01, *** p<0.001**** p<0.0001.

[4] = H&E-stained kidney tissue, end of study

ability to cross the blood brain barrier [3]: crosses the blood brain barrier
SMILES: CN1CCN([C@@H]2CCCN(c3cnc(C(N)=O)c(Nc4ccc(C5CCN(CC6CCN(c7ccc(C(=O)N[C@H]8CCC(=O)NC8=O)nc7)CC6)CC5)cc4)n3)C2)C1=O [Compound 1]
mean clinical score ([1]; EAE, 30 mg/kg, compared with ibrutinib 30 mg/kg): superior to Ibrutinib; also recorded: lower mean clinical score than ibrutinib
EAE clinical scores ([1]; prophylactic daily oral treatment, Day −1 through Day 22, dose dependence): dose-dependent reduction of EAE clinical scores
body weight [2]: minimal effect on body weight; also recorded: minimal body weight loss
mean arthritis score ([2]; Day 18 to day 35): significant benefit; also recorded: lower mean arthritis score than ibrutinib; also recorded: lower mean arthritis score than standard of care agents
exposure in cerebral spinal fluid (CSF) ([3]; 4, 8, 24 hours): demonstrates exposure in cerebral spinal fluid (CSF)
plasma cells in spleen, normalized to total B cells (plasma cells; 30 mg/kg, vs 30 mg/kg rilzabrutinib and ibrutinib): significantly fewer plasma cells than mice treated with an equivalent dose of BTK inhibitors
plasma cells in spleen, normalized to total B cells (plasma cells; both doses (10 and 30 mg/kg), vs vehicle): significantly fewer plasma cells than vehicle-treated mice
plasma cell numbers in the bone marrow (plasma cells; vs vehicle and vs equivalent doses of rilzabrutinib and ibrutinib): significantly reduced plasma cell numbers
generation of plasma cells upon immunization (plasma cell generation; NP-KLH immunization, oral once a day Day 1 to Day 7): significantly decrease
germinal center formation (plasma cell generation; following NP-KLH immunization): do not affect
number of B cells in spleen (plasma cell generation; following NP-KLH immunization): do not affect
number of IgG1+ plasma cells in spleen (plasma cell generation; immunized mice): significantly decrease
number of total Plasma cells in spleen (plasma cell generation; immunized mice): significantly decrease
protein urine score, statistically significant reduction vs vehicle (MRL/lpr model; 30 mg/kg, Urine Protein Score AUC): statistically significant reduction
anti-ds DNA autoantibody in end of study serum (MRL/lpr model; 30 mg/kg, vs vehicle): statistically significant reduction
overall summed histology score (MRL/lpr model; [4]): more effective than Ibrutinib
size of the glomeruli (MRL/lpr model; [4]): more effective than Ibrutinib
kidney disease (MRL/lpr model; MRL/lpr model): significantly ameliorated kidney disease
urine protein score (MRL/lpr model; daily oral, starting at 10 weeks of age, dose dependence): dose-dependent reduction of urine protein score
